Experimental data: patent US20220016048A1, “CANNABIDIOL-TYPE CANNABINOID COMPOUND” (GW Research Limited, priority 2018, published 2022)

What was measured:
[1] = system: sub-chronic PCP-induced deficit in social behaviour in female Lister-Hooded rats; experiment: social interaction test in sub-chronic PCP treated rats; assay type: in vivo, rat
Description: The aim of the current study was to investigate the ability of CBD-C4 (3, 10 & 30 mg/kg IP; 60 min pre-treatment (ptt)) in comparison with risperidone (an atypical antipsychotic; 0.1 mg/kg IP; 60 min pre-treatment), to antagonise a sub-chronic PCP (scPCP; 2 mg/kg IP; twice daily for 7-days; 7 day wash out)-induced deficit in social behaviour in female Lister-Hooded rats.
180 female Lister Hooded rats were used for this experiment, of which 90 were used for the drug study and 90 weight-matched untreated conspecifics were used as the companion rat, and their behaviour was not scored.
Rats were housed in groups of 5 under standard laboratory conditions under a 12-hr light: dark cycle, lights on at 0700 hr. Testing was carried out in the light phase. These studies were carried out in accordance with the Animals Scientific Procedures Act (UK, 1986).
CBD-C4 was used at doses of (3, 10, 30 mg/kg, i.p.) and risperidone was used at a dose of 0.1 mg/kg, i.p.
Rats were randomly assigned to two treatment groups and treated with vehicle, n=15 (distilled water, i.p.) or PCP, n=75 (2 mg/kg, i.p. twice daily for 7-days). This was followed by a 7-day wash out period before the rats were tested following acute treatment with CBD-C4, risperidone or vehicle.
Risperidone (0.1 mg/kg) was dissolved in a minimum volume of acetic acid, made up to volume with distilled water and pH adjusted to 6 with 0.1M NaOH and administered via the i.p. route in a volume of 1 ml/kg, 60 min prior to testing.
CBD-C4 (3, 10 & 30 mg/kg) was dissolved in 2:1:17 (Ethanol:Cremophor EL:Saline 0.9%). CBD-C4 was administered via the i.p. route in a volume of 5 ml/kg, 60 min prior to testing.
The social interaction test was performed in an open-field comprising a square box made of Plexiglas (52×52×31 cm) placed 27 cm above the floor on a moveable trolley. The floor of the box was white with black gridlines forming 9 identical squares on it. All other walls were black. A video camera connected to a video recorder and monitor was positioned above the box. The object used for the test consists of a heavy structure made of metal that cannot be displaced by the animals.
After a 7 day drug-free period, the rats were habituated to the test environment and arena prior to the test day. Habituation consisted of placing all rats from one cage together in the empty test arena for one hour for three days including the day before the test day.
Pairs of rats, weight matched (15-20 g) and unfamiliar to each other, receiving either no treatment (n=90 “conspecific” rats) or different treatments (PCP; n=15 “tested” rats, Vehicle; n=15 “tested” rats, or PCP+drug; n=60 “tested” rats) were placed in the test arena together for 10 minutes and behavior assessed as described below.
An inanimate object such as an unopened drink can was also placed in the centre of the arena to measure any differences in interaction of the test animal with an unfamiliar animal as opposed to an unfamiliar object. After each 10-minute trial, the object and arena were cleaned with 10% alcohol in an attempt to remove traces of any olfactory cues. All testing was carried out under standard room illumination levels (70 cd/m^2).
Behaviour in both trials was recorded on video for subsequent blind scoring. A behavioural scoring software program (Hindsight, Scientific programming services) was used to score the following parameters:
Investigative sniffing behaviour: sniffing the conspecific's snout or parts of the body including the anogenital region.
Following: rat moves after the conspecific i.e. a vehicle treated rat of the same species, around the arena.
Avoidances: actively turning away when approached by the conspecific animal.
Investigation of object: exploration of object placed in centre of the arena.
Locomotor activity is recorded by counting the total number of sectors (i.e. lines) crossed by the test rat.
All data were assessed for normality using D'Agostino and Pearson normality test. […]

[2] = system: PCP-induced social behaviour deficit in female rats; details: background statement; cited from earlier work
mouse model of seizure = experiment: maximal electroshock (MES) test in the mouse; assay type: in vivo; details: 2 mg/kg i.p. 30 minutes before MES; p<0.001
Description: Mice were administered MES (50 mA, rectangular current: 0.6 ms pulse width, 0.4 s duration, 50 Hz) via corneal electrodes connected to a constant current shock generator (Ugo Basile: type 7801). The number of tonic convulsions was recorded.
Twelve mice were studied per group. The test was performed blind.
The test substance, CBD-C4, was evaluated at 5 doses (3, 10, 30, 100 and 200 mg/kg), administered i.p. 60 minutes before MES, and compared with a vehicle control group (administered under the same experimental conditions).
Diazepam (2 mg/kg i.p.), administered i.p. 30 minutes before MES, was used as a reference substance and was compared with a vehicle group (administered i.p. 60 minutes before MES).
Data was analysed by comparing treated groups with the appropriate vehicle control using Fisher's Exact Probability tests.

[3] = 0.1 mg/kg i.p., 60 min pre-treatment
[4] = CBD-C4 3, 10, 30 mg/kg, risperidone 0.1 mg/kg i.p., data not shown

For `Cc1nc2n(c(=O)c1CCN1CCC(c3noc4cc(F)ccc34)CC1)CCCC2` [risperidone], the “avoidance behaviour compared to the scPCP-treated group” value [1, 3] was “significantly decreased”, the following behaviour [1, 3] was “no significant effect” and the sniffing behaviour [1, 3] was “no significant effect”. The “line crossings (locomotor activity)” value [1, 4] was “no significant effect” and the object exploration [1, 4] was “no significant effect”.

For `CNCCC(Oc1ccc(C(F)(F)F)cc1)c1ccccc1` (stereo not shown) [fluoxetine], the “attenuation of PCP-induced social behaviour deficit” value (“attenuation” below) [2] is listed as “not attenuated”.

In the case of `c1ccc(C2(N3CCCCC3)CCCCC2)cc1` [PCP, Phencyclidine], the “sniffing behaviour (scPCP vs vehicle)” value ([1]; PCP 2 mg/kg i.p. twice daily 7 days, 7-day wash out, P<0.001) is reported as “significantly reduced”, the “following behaviour (scPCP vs vehicle)” value ([1]; PCP 2 mg/kg i.p. twice daily 7 days, 7-day wash out, P<0.01) is reported as “significantly reduced” and the “increase in the duration of avoidance activity (scPCP vs vehicle)” value ([1]; PCP 2 mg/kg i.p. twice daily 7 days, 7-day wash out, P=0.058) is reported as “just failed to reach statistical significance”.

For `O=C1Cc2cc(CCN3CCN(c4nsc5ccccc45)CC3)c(Cl)cc2N1` [ziprasidone], the “attenuation” value [2] is listed as “attenuated”.

In the case of `O=C1CCc2ccc(OCCCCN3CCN(c4cccc(Cl)c4Cl)CC3)cc2N1` [aripiprazole], the “attenuation” value [2] is given as “attenuated”.

In the case of `CN1C(=O)CN=C(c2ccccc2)c2cc(Cl)ccc21` [diazepam, Diazepam, reference compound], the “decrease in the number of tonic convulsions, as compared with vehicle controls” value (mouse model of seizure) is reported as −75%.

In the case of `O=C(CCCN1CCC(O)(c2ccc(Cl)cc2)CC1)c1ccc(F)cc1` [haloperidol], the “attenuation” value [2] is given as “not attenuated”.
